Assay results from paper PMC3919815, “Anti-Tumor Effects of Novel 5-O-Acyl Plumbagins Based on the Inhibition of Mammalian DNA Replicative Polymerase Activity” (PLoS ONE, 2014).
pIC50: −log10 of the molar value. Several values for one entry are separate records, joined by “and”; a condition that tells them apart may be missing. Equal values may be shown once.

How the values were obtained:
[1] = target: Mouse IMP dehydrogenase (type II) (Mus musculus, UniProt P24547); assay: Other DNA metabolic enzyme assay; assay type: biochemical
Chain of Mouse IMP dehydrogenase (type II) (P24547 whole entry): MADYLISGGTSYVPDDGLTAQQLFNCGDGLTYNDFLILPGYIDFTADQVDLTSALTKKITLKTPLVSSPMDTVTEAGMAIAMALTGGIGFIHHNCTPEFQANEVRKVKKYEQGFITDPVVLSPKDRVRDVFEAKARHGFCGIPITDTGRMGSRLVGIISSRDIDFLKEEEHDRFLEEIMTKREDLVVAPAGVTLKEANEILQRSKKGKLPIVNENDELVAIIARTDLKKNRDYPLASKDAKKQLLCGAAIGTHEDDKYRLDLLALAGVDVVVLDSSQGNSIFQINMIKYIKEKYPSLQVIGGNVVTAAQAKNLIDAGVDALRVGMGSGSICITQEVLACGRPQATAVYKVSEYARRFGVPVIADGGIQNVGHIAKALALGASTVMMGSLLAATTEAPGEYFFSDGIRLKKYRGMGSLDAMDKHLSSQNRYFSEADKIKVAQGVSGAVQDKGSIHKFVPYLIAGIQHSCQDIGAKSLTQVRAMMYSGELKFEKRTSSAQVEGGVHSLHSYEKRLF
Experimental: (§1) The activities of calf primase of pol α, T7 RNA polymerase, mouse inosine-5′-[…] (IMP) dehydrogenase (type II), T4 polynucleotide kinase, and bovine deoxyribonuclease I were measured in standard assays according to the manufacturer's specifications, as described by Tamiya-Koizumi et al., Nakayama and Saneyoshi, Mizushina et al., Soltis et al., and Lu and Sakaguchi, respectively.

Calf primase of pol α = Calf primase of pol α (Bos taurus, UniProt A0A3Q1MF00); assay: Other DNA metabolic enzyme assay; assay type: biochemical
Chain of Calf primase of pol α (A0AAA9THK8 entry or part of it): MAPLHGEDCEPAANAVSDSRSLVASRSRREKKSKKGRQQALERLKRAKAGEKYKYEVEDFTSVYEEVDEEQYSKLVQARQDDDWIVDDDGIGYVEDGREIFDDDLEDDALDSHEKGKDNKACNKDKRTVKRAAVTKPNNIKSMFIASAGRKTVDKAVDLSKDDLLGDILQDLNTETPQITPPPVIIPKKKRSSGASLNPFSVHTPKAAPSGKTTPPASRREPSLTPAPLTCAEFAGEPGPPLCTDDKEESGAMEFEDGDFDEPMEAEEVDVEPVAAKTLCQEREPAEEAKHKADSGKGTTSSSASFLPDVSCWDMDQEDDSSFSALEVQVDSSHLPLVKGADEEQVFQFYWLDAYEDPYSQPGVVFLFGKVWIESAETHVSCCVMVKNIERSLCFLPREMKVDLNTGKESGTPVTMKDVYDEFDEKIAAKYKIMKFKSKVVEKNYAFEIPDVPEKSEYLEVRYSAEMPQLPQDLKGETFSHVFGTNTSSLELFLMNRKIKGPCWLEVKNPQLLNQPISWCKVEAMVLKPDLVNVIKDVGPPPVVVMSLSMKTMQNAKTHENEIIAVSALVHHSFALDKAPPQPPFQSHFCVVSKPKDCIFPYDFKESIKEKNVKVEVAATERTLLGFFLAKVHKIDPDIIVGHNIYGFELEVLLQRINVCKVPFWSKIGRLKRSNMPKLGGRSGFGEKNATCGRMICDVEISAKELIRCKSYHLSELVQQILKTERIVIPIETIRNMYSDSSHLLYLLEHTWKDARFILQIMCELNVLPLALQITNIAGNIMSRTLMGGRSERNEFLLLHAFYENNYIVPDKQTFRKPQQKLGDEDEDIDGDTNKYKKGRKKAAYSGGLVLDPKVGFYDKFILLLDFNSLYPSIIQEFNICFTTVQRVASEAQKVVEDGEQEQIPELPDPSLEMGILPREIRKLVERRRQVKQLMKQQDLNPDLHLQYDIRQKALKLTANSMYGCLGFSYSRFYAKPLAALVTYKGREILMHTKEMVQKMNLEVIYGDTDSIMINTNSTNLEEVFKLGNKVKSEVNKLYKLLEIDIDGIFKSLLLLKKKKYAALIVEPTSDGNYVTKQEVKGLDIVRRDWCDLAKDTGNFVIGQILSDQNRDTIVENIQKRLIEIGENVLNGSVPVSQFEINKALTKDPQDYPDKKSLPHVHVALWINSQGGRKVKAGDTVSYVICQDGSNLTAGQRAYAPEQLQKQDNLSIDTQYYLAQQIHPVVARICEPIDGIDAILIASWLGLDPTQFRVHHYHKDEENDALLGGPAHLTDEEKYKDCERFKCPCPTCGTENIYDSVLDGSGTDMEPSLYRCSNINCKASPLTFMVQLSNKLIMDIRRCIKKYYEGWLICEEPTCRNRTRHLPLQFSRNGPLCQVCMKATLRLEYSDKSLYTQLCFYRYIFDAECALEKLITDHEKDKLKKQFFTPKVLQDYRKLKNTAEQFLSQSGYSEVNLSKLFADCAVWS
Chain of Calf primase of pol α (A0JNF4 entry or part of it, further chain): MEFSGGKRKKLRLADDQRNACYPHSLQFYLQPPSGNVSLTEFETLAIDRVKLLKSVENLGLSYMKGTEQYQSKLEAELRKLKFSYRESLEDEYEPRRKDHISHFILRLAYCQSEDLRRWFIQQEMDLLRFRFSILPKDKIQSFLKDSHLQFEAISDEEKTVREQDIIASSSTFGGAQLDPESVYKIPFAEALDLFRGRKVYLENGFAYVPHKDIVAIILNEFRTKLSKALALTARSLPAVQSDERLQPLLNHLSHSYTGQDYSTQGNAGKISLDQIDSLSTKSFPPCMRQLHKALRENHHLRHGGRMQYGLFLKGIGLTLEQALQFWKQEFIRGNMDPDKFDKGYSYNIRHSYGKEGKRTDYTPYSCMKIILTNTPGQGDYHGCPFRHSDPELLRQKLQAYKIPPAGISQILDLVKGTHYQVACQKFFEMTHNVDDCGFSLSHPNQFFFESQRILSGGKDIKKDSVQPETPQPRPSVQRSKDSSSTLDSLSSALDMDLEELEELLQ
Chain of Calf primase of pol α (A0A3Q1MF00 entry or part of it): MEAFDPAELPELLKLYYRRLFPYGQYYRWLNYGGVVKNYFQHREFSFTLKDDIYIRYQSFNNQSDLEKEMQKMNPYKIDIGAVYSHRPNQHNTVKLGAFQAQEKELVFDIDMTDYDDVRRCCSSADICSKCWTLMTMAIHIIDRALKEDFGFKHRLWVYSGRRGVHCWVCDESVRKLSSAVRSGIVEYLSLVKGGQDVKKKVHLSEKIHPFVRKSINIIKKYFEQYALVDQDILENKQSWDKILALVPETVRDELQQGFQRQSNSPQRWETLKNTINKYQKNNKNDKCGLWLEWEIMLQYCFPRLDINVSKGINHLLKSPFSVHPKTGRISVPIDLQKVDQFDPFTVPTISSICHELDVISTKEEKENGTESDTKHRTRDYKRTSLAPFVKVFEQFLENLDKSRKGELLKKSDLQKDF
Chain of Calf primase of pol α (Q58D13 whole entry, further chain): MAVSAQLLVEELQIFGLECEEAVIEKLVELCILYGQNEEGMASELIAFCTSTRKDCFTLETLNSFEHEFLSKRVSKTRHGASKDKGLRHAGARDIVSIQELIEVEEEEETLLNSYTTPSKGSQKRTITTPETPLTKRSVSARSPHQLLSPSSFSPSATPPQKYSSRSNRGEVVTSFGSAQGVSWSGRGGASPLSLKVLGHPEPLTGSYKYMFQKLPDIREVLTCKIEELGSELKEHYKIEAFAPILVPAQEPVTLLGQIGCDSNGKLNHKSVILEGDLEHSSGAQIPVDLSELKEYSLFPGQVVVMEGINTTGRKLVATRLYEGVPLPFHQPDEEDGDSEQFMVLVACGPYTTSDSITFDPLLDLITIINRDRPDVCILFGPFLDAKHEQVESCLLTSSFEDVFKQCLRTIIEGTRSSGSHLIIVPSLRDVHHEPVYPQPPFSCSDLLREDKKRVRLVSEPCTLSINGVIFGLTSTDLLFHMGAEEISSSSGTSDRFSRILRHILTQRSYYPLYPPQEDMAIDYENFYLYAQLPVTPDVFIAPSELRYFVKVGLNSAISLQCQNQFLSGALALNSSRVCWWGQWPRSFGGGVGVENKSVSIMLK
Experimental: as §1

T4 polynucleotide kinase = target: T1, T4 polynucleotide kinase (Enterobacteria phage T4, UniProt P06855); assay: Other DNA metabolic enzyme assay; assay type: biochemical
T1 construct: purchased Takara Bio Inc. (Kyoto, Japan)
T1 sequence (P06855 whole entry): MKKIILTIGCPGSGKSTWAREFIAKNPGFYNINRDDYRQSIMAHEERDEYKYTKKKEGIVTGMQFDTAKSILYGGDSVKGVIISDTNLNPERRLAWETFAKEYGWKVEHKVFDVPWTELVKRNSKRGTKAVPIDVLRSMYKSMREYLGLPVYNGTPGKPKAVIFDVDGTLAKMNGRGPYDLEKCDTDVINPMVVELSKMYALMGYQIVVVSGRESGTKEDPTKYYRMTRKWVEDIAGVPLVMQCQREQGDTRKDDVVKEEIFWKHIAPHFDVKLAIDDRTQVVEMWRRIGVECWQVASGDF
Source text: (§2) Pol α was purified from calf thymus by immunoaffinity column chromatography as described by Tamai et al.. Recombinant rat pol β was purified from Escherichia coli JMpβ5 as described by Date et al.. The human pol γ catalytic gene was cloned into pFastBac. Histidine-tagged enzyme was expressed using the BACTO-BAC HT Baculovirus Expression System according to the manufacturer's instructions (Life Technologies, Frederick, MD, USA) and purified using ProBound resin (Invitrogen Japan, Tokyo Japan). Human pols δ and ε were purified by nuclear fractionation of human peripheral blood cancer cells (Molt-4) using the second subunit of pol δ and ε-conjugated affinity column chromatography, respectively. A truncated form of human pol η (residues 1–511) tagged with His6 at its C-terminal was expressed in E. coli cells and purified as described by Kusumoto et al.. A recombinant mouse pol ι tagged with His6 at its C-terminal was expressed and purified by Ni–NTA column chromatography. A truncated form of pol κ (residues 1–560) with 6× His-tags attached at the C-terminus was overexpressed in E. coli and purified as described by Ohashi et al.. Recombinant human His-pol λ was overexpressed and purified according to a method described by Shimazaki et al.. Recombinant human His-pol μ was overexpressed in E. coli BL21 and purified using Glutathione Sepharose 4B (GE Healthcare Bio-Science Corp., Piscataway, NJ, USA) column chromatography according to the method for pol λ preparation by Shimazaki et al.. Pol α from a higher plant, cauliflower, was purified from the inflorescence structure according to the methods outlined by Sakaguchi et al.. Recombinant rice (Oryza sativa L. cv. Nipponbare) pol λ tagged with His6 at the C-terminus was expressed in E. coli and purified as described by Uchiyama et al.. Calf TdT, Taq pol, T4 pol, T7 RNA polymerase, and T4 polynucleotide kinase were purchased from Takara Bio Inc. (Kyoto, Japan). The Klenow fragment of pol I from E. coli was purchased from Worthington Biochemical Corp. (Freehold, NJ, USA). Bovine pancreas deoxyribonuclease I was obtained from Stratagene Cloning Systems (La Jolla, CA, USA).
as §1

[2] = target: T2, Bovine deoxyribonuclease I (Bos taurus, UniProt P00639); assay: Other DNA metabolic enzyme assay; assay type: biochemical
T2 construct: Bovine pancreas deoxyribonuclease I was obtained from Stratagene Cloning Systems; purchased Stratagene Cloning Systems (La Jolla, CA, USA); host or cells: bovine pancreas
T2 sequence (P00639 23-282): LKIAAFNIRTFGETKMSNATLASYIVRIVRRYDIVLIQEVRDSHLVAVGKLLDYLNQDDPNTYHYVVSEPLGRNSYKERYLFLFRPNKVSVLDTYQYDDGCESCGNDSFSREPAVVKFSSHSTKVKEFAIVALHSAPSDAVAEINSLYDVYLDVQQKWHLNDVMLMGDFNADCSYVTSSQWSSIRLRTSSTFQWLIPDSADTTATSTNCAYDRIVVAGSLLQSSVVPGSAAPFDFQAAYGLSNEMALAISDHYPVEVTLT
Source text: as §2, §1

T7 RNA polymerase = target: T3, T7 RNA polymerase (Escherichia phage T7, UniProt P00573); assay: Other DNA metabolic enzyme assay; assay type: biochemical
T3 construct: purchased Takara Bio Inc. (Kyoto, Japan)
T3 sequence (P00573 whole entry): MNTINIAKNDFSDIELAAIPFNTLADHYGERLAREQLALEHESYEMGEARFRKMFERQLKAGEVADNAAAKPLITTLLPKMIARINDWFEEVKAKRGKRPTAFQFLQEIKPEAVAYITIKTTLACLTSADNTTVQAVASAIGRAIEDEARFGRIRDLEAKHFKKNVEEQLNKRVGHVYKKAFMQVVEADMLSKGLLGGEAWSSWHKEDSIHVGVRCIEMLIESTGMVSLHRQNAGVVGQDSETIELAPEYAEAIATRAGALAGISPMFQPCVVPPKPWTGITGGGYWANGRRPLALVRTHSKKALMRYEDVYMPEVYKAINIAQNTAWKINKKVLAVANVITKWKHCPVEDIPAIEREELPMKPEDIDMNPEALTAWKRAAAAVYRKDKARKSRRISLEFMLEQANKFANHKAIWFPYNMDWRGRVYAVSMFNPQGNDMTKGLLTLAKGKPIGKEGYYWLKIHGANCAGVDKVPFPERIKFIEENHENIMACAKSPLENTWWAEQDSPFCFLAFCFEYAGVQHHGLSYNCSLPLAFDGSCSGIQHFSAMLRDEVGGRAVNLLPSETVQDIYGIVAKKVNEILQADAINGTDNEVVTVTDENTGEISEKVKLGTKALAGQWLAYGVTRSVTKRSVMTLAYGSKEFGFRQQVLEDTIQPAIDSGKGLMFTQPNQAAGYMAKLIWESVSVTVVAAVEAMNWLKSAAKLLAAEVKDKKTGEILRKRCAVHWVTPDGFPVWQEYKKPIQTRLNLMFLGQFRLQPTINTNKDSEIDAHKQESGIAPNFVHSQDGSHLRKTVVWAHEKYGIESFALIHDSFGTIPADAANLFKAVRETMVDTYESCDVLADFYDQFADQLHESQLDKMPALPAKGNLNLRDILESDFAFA
Source text: as §2, §1

PC3 (prostate cancer) = assay: Cancer cell viability, MTT assay; assay type: cell-based, human; conditions: 48 h, mean ± SD (n = 5)
Experimental: (§3) The following human cancer cell lines were obtained from the American Type Culture Collection (Manassas, VA, USA): lung (A549), prostate (DU145 and PC3), colon (HCT116 and HT-29), cervix (HeLa), hepatocellular liver (HepG2), breast (MCF-7), and pancreatic cancer (PANC-1). These cells were cultured in RPMI 1640 medium supplemented with 10% fetal bovine serum, penicillin (100 units/mL), streptomycin (100 µg/mL), and 1.6 mg/mL NaHCO3 at 37°C in a humid atmosphere of 5% CO2/95% air. For the cell viability assay, cells were seeded at 1×10^3 cells/well in a 96-well microplate with various concentrations of the test compounds, and incubated for 48 h. MTT (3-(4,5-dimethylthiazol-2-yl)-2,5-diphenyl tetrazolium bromide) solution was added to a final concentration 0.6 mg/mL in Milli-Q purified water for 2 h, after which time the medium was discarded and the cells lysed in DMSO. A540 was then measured in a microplate reader (Model 680, Bio-Rad Laboratories, Hercules, CA, USA).

DU145 (prostate cancer) = assay: Cancer cell viability, MTT assay; assay type: cell-based, human; conditions: 48 h, mean ± SD (n = 5)
Experimental: as §3

MCF-7 (breast cancer) = assay: Cancer cell viability, MTT assay; assay type: cell-based, human; conditions: 48 h, mean ± SD (n = 5)
Experimental: as §3

[3] = tested on: HepG2 (hepatocellular liver cancer); assay: Cancer cell viability, MTT assay; assay type: cell-based, human; conditions: 48 h, mean ± SD (n = 5)
Experimental: as §3

HCT116 (colon cancer) = assay: Cancer cell viability, MTT assay; assay type: cell-based, human; conditions: 48 h
Experimental: as §3

HeLa (cervical cancer) = assay: Cancer cell viability, MTT assay; assay type: cell-based, human; conditions: 48 h, mean ± SD (n = 5)
Experimental: as §3

A549 (lung cancer) = assay: Cancer cell viability, MTT assay; assay type: cell-based, human; conditions: 48 h, mean ± SD (n = 5)
Experimental: as §3

[4] = tested on: PANC-1 (pancreatic cancer); assay: Cancer cell viability, MTT assay; assay type: cell-based, human; conditions: 48 h, mean ± SD (n = 5)
Experimental: as §3

[5] = tested on: HT-29 cells (colon cancer); assay: Cancer cell viability, MTT assay; assay type: cell-based, human; conditions: 48 h, mean ± SD (n = 5)
Experimental: as §3

## CCCCCCCC/C=C\CCCCCCCC(=O)Oc1cccc2c1C(=O)C=C(C)C2=O [2f, 5-O-oleoyl-2-methyl-1,4-naphthoquinone]
[1]
  effect on enzyme activity (in words): did not inhibit
[1]; 0.05 units enzyme
  pIC50: < 4.00
Calf primase of pol α
  effect on enzyme activity (in words): did not inhibit
Calf primase of pol α; 0.05 units enzyme
  pIC50: < 4.00
T4 polynucleotide kinase
  effect on enzyme activity (in words): did not inhibit
T4 polynucleotide kinase; 0.05 units enzyme
  pIC50: < 4.00
[2]
  effect on enzyme activity (in words): did not inhibit
[2]; 0.05 units enzyme
  pIC50: < 4.00
T7 RNA polymerase
  effect on enzyme activity (in words): did not inhibit
T7 RNA polymerase; 0.05 units enzyme
  pIC50: < 4.00
PC3 (prostate cancer)
  LD50 values: 10.0 ± 1.1 µM
DU145 (prostate cancer)
  LD50 values: 8.8 ± 0.9 µM
MCF-7 (breast cancer)
  LD50 values: 7.2 ± 0.7 µM
[3]
  LD50 values: 7.4 ± 0.8 µM
HCT116 (colon cancer); 10 µM, MTT, control = 100%
  cell proliferation rate: less than 40%
HCT116 (colon cancer); 10 and 100 µM, MTT, Fig. 5
  cell proliferation inhibitory effect compared among the compounds (in words): strongest effects on cancer cell proliferation suppression
HCT116 (colon cancer); MTT assay, mean ± SD (n = 5)
  LD50 values: 6.5 µM and 6.5 ± 0.6 µM
HeLa (cervical cancer)
  LD50 values: 21.0 ± 2.5 µM
A549 (lung cancer)
  LD50 values: 15.4 ± 1.7 µM
[4]
  LD50 values: 16.1 ± 1.8 µM
[5]
  LD50 values: 2.9 ± 0.4 µM
[5]; listed as C18:1-acyl plumbagin
  LD50 values: 2.9 µM
